Values of other authors in patent publication US20150147356A1, “ANTIPYRETICS TO ENHANCE TOLERABILITY OF VESICLE-BASED VACCINES” (priority 2011, published 2015).
Where “and” joins values, the source holds several entries; their conditions need not be identical. Equal values may be shown once.

How the values were obtained:
[1] = in vivo
[2] = in vivo; remark: listed apart in the source

CC(C)Cc1ccc(C(C)C(=O)O)cc1 (stereo not shown) [Ibuprofen, ibuprofen]
duration of action [1]: about 4 hours
Therapeutic blood level: 10-50 μg/ml and 49-243 μM

CC(=O)Nc1ccc(O)cc1 [paracetamol, paracetamol (acetaminophen)]
half-life [2]: about 3 hours
Therapeutic blood level: 10-30 μg/ml and 66-199 μM
